From patent US11981883B2, “Composition containing 1,2-dichloro-3,3,3-trifluoropropene” (DAIKIN INDUSTRIES, LTD., priority 2018, dated 2024)

System: rats
Experiment: 4-hour single-inhalation exposure test (OECD Guideline No. 436)
Type: in vivo
Procedure: A 4-hour single-inhalation exposure test was performed on rats by using a mist of HCFO-1223xd according to the OECD Guideline No. 436.

## FC(F)(F)C(Cl)=CCl [HCFO-1223xd, 1,2-dichloro-3,3,3-trifluoropropene]
4-hour single inhalation, mist at a concentration of 5 mg/L
  death of rats on inhalation exposure: No death of the rats was observed
4-hour single-inhalation exposure, OECD Guideline No. 436
  acute toxicity: low acute toxicity
